Results as given in paper PMC9775652, “Concomitant Administration of Red Ginseng Extract with Lactic Acid Bacteria Increases the Plasma Concentration of Deglycosylated Ginsenosides in Healthy Human Subjects” (Biomolecules, 2022).
Read-outs that look alike come from different tables or passages of the source.

Columns and labels:
[1] = rat, in vivo, po; cited from earlier work
[2] = set-up: method as in PMID 34575573; details: mice, LAB supplementation (Lacto-fit) for two weeks; cited from earlier work
P-gp = target: T1, P-gp (Homo sapiens, UniProt P08183); assay: Transport of ginsenosides in P-gp-overexpressing LLC-PK1-P-gp cells; type: in vitro ADME
T1 construct: host or cells: LLC-PK1-P-gp cells (passage no. 25–28)
T1 sequence (P08183 whole entry): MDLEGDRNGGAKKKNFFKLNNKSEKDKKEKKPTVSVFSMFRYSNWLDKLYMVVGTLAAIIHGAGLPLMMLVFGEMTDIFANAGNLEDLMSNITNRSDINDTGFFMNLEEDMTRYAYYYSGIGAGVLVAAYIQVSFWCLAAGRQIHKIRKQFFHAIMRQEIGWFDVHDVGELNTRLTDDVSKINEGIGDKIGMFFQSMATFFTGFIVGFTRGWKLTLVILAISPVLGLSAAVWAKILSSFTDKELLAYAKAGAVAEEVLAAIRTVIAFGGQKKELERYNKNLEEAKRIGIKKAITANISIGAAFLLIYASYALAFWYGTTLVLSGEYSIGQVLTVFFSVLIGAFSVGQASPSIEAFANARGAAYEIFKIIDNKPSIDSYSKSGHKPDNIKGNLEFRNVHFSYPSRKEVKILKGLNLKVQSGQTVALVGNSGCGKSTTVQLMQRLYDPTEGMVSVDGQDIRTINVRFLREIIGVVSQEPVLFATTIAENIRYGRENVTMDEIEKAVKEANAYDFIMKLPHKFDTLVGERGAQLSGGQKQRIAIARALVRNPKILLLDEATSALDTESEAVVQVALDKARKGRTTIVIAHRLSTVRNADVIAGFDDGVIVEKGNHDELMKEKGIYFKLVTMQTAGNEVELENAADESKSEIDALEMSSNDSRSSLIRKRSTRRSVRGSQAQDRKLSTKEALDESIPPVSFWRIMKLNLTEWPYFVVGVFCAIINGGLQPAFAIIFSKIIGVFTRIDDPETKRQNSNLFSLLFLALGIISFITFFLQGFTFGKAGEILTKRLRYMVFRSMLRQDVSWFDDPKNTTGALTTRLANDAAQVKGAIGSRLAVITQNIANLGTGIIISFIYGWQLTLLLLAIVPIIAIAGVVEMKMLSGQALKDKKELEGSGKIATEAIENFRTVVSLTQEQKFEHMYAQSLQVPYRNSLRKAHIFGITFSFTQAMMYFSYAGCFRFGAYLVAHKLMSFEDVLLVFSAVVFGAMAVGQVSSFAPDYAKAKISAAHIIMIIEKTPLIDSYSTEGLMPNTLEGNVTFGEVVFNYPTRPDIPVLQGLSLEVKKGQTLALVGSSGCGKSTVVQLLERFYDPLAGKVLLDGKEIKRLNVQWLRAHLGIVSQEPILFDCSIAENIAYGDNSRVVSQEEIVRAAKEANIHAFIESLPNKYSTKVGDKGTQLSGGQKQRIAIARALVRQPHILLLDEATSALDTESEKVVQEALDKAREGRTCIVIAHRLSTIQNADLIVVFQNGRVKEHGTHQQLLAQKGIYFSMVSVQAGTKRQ
Method: (§1) LLC-PK1-P-gp cells (passage no. 25–28) were seeded onto collagen-coated permeable support (1.0 μm pore size) in 24-well plates at a density of 2.5 × 10^4 cells/insert and grown for 5 days with TEER values of over 500 Ω·cm^2 [24]. The A to B transport and B to A transport of GRg3, GRh2, CK, PPD, GRg1, GRh1, and PPT (20 μM each) were measured as previously described. The concentration dependency in the B to A transport of GRh2, CK, PPD, and PPT was measured in the range of 6.25–200 μM for GRh2, CK, PPD, and PPT.
(§2) For the transport study of ginsenosides in CaCo-2 cells and LLC-PK1-P-gp cells, the ginsenoside transport rate in the A to B or B to A directions was calculated from the slope of the regression line from the mean transported amounts versus time plot. The apparent permeability (Papp) was calculated using Equation (1). (1) Papp (×10^−6 cm/s)=transport rate (nmol/min)/concentration(μM)×area(cm^2)×60s
(§3) The efflux ratio was calculated by dividing the Papp of ginsenosides from the B to A direction by that from the A to B direction.
(§4) To measure the kinetic parameters of the concentration dependence on the P-gp-mediated ginsenoside efflux, the ginsenoside transport rate in the B to A direction (ν) versus the ginsenoside concentration (S) plot was fitted in the Michaelis–Menten Equation (2) using Sigma Plot (version 12.0, Systat Software Inc. Chicago, IL, USA). (2) ν=Vmax×S/Km+S

[3] = Pharmacokinetic study of ginsenosides in healthy humans after repeated oral RGE with or without LAB; type: in vivo, human; details: male, human, in vivo, po; for AUC: 104.1 mg
Method: A single-sequence study consisting of two periods was conducted on five healthy male subjects (body weight > 50 kg and age > 19 years) for 29 days. During the first period of the study (RGE treatment group), three pouches of RGE (30 mL, 104.1 mg of total ginsenosides) were administered to 5 subjects once daily for 14 days. On the 14th day, the subjects were admitted to the Clinical Trial Center of KNUH at 7 AM and underwent the last RGE administration at approximately 8–9 AM. Blood samples (approximately 3 mL) were collected at 0, 4, 6, 8, 10, 12, 13, 14, and 24 h after the last dose. A saline-locked angiocatheter was placed on the forearm of each subject’s hand. After discarding 1 mL of blood derived from the catheter, 3 mL of blood was drawn into a vacutainer tube containing heparin and centrifuged at 3000× g for 10 min. The supernatant plasma samples were stored at −80 °C until ginsenoside analysis.
In the second half of the study (RGE + LAB treatment group), 3 pouches of RGE (30 mL, 104.1 mg of total ginsenosides) and 1 pouch of LAB (1 billion CFU/2 g) were co-administered once daily for 14 days. On the […], the subjects were admitted to the Clinical Trial Center of KNUH at 7 AM and received the last red ginseng dose at approximately 8–9 AM. Blood samples (approximately 3 mL) were withdrawn at 0, 4, 6, 8, 10, 12, 13, 14, and 24 h intervals after the last dose and centrifuged at 3000× g for 10 min; the supernatant plasma samples were stored at −80 °C.
Briefly, to analyze GRb1, GRb2, GRc, GRd, GRe, GRf, GRg1, GRg3, GF1, and GF2, 400 μL of an internal standard (IS; 0.05 ng/mL berberine in methanol) was added to 100 μL of plasma. The mixture was vortexed for 15 min and centrifuged at 16,000× g for 5 min. After centrifugation, 400 μL of the supernatant was evaporated using a speed-dry vacuum concentrator (Christ, Osterode am Harz, Germany). The residue was reconstituted using 200 μL of 70% methanol supplemented with 0.1% formic acid, and a 10 μL aliquot was injected into the LC-MS/MS system. Chromatographic separation was performed using a Polar RP column (150 × 2.0 mm, 4.0 μm particle size; Phenomenex, Torrance, CA, USA) using a mobile phase consisting of 0.1% formic acid in water (phase A) and 0.1% formic acid in methanol (phase B). The following elution gradient was used: 69% of phase B for 0–2.0 min, 69–85% of phase B for 2.0–4.0 min, and 85–69% of phase B for 6.0–6.5 min. The flow rate was 0.27 mL/min.
The mixture was vortexed for 10 min and centrifuged at 16,000× g for 5 min. After centrifugation, the samples were frozen at −80 °C for 4 h. The upper layer was transferred to a clean tube and evaporated. The residue was reconstituted using 200 μL of 80% methanol supplemented with 0.1% formic acid, and a 10 μL aliquot was injected into the LC-MS/MS system. Chromatographic separation was performed using a Luna C18 column (150 × 2.0 mm, 3.0 μm particle size; Phenomenex, Torrance, CA, USA) and using a mobile phase consisting of water containing 0.1% formic acid: methanol containing 0.1% formic acid = 8:92 (v/v) at a flow rate of 0.15 mL/min.
The quantification of ginsenosides was carried out using multiple reaction monitoring in positive ionization mode, as previously described.
Finally, pharmacokinetic parameters were calculated using non-compartmental methods (WinNonlin version 5.1; Pharsight Co., Certara, NJ, USA). Statistical analysis was performed by Student’s t-test to compare the two groups using IBM SPSS Statistics for Windows (version 25.0; IBM Corp., Armonk, NY, USA). Differences were considered significant at p < 0.05.

LAB [4] = assay: In vitro RGE fermentation with LAB; type: in vitro ADME; details: RGE incubated with LAB (1 billion CFU) for 7 days at 37 °C; result in words
Method: (§5) To identify the effects of LAB on ginsenoside metabolism, an in vitro fermentation study was performed according to the method of Jeon et al., with slight modifications. Briefly, RGE (10 mL, 1 pouch) and 2 g LAB (containing 1 billion CFU) were suspended in 10 mL autoclaved MRS broth (550 mg broth powder dissolved in 10 mL water). For the 15 ginsenosides, individual ginsenosides (10 μM each) and 2 g of LAB were suspended in 20 mL of autoclaved MRS broth (550 mg broth powder dissolved in 20 mL water). The mixture was incubated for 7 days in a shaking incubator at 37 °C and 300 rpm, and a 0.1 mL aliquot of the incubation mixture was collected on days 0, 3, 5, and 7. The incubation medium was diluted 100-fold with distilled water and stored at −80 °C to analyze ginsenosides using the LC-MS/MS system.
(§6) To measure the metabolic activity of ginsenosides, the formation rate of ginsenosides (pmol/day) was calculated by dividing the slope of the regression line by the amount of deglycosylated ginsenosides versus the incubation time plot by the initial concentration of individual ginsenosides.

[5] = Transport (permeability) of ginsenosides in CaCo-2 cell monolayers; type: in vitro ADME; details: human; for efflux ratio at 50 µM: Caco-2, Efflux ratio (ER)
Method: CaCo-2 cells (passage no 41–43) were seeded onto collagen-coated permeable support (1.0 μm pore size) in a 24-well plate at a density of 2.5 × 10^4 cells/insert and cultured for 21 days in Dulbecco’s modified eagle’s medium supplemented with 10% fetal bovine serum, 1% non-essential amino acids, and 1% penicillin-streptomycin at 37 °C in a humidified atmosphere (5% CO2/95% air). After confirming that the transepithelial electrical resistance (TEER) of the CaCo-2 cell monolayer was over 400 Ω·cm^2, Apical to basal (A to B) transport and B to A transport of ginsenosides using 50 µM, GRb1 was investigated as previously described. The same permeability study was performed using 50 µM GRb2, GRc, GRd, GRg3, GRh2, GF2, CK, PPD, GRe, GRf, GRg1, GRh1, GF1, or PPT.
as §2, §3

LAB [6] = assay: Incubation of individual ginsenosides with LAB (metabolic pathway); type: in vitro ADME; details: individual ginsenoside 10 μM with LAB (1 billion CFU), 7 days; GF2 to CK, CK to PPD, GRg1 to GRh1; result in words
Method: as §5, §6

[7] = tested on: T2, CC(C)=CCCC(C)(O)C1CCC2(C)C1C(O)CC1C3(C)CCC(O)C(C)(C)C3CCC12C; assay: Transport of ginsenosides in P-gp-overexpressing LLC-PK1-P-gp cells; type: in vitro ADME; details: other: B to A transport rate in LLC-PK1-P-gp cells, 6.25–200 μM, Michaelis–Menten fit
T2 construct: host or cells: LLC-PK1-P-gp cells (passage no. 25–28)
Method: as §1, §2, §3, §4

[8] = tested on: T3, CC(C)=CCCC(C)(OC1OC(CO)C(O)C(O)C1O)C1CCC2(C)C1C(O)CC1C3(C)CCC(O)C(C)(C)C3CCC12C; assay: as above; type: in vitro ADME; details: other: B to A transport rate in LLC-PK1-P-gp cells, 6.25–200 μM, Michaelis–Menten fit
T3 construct: host or cells: LLC-PK1-P-gp cells (passage no. 25–28)
Method: as §1, §2, §3, §4

[9] = tested on: T4, CC(C)=CCCC(C)(O)C1CCC2(C)C1C(O)CC1C3(C)CCC(O)C(C)(C)C3C(O)CC12C; assay: as above; type: in vitro ADME; details: other: B to A transport rate in LLC-PK1-P-gp cells, 6.25–200 μM, Michaelis–Menten fit
T4 construct: host or cells: LLC-PK1-P-gp cells (passage no. 25–28)
Method: as §1, §2, §3, §4

[10] = tested on: T5, [H][C@@]1(O[C@H]2CC[C@]3(C)[C@@]4([H])C[C@@H](O)[C@]5([H])[C@@]([H])([C@@](C)(O)CCC=C(C)C)CC[C@@]5(C)[C@]4(C)CC[C@@]3([H])C2(C)C)O[C@H](CO)[C@@H](O)[C@H](O)[C@H]1O; assay: as above; type: in vitro ADME; details: other: B to A transport rate in LLC-PK1-P-gp cells, 6.25–200 μM, Michaelis–Menten fit
T5 construct: host or cells: LLC-PK1-P-gp cells (passage no. 25–28)
Method: as §1, §2, §3, §4

[11] = pig, LLC-PK1, LLC-PK1-P-gp cells, 20 μM, B to A Papp divided by A to B Papp, read-out: ER
[12] = pig, LLC-PK1-P-gp cells, 20 μM, mean ± SD, n = 3, read-out: A to B permeability
[13] = pig, LLC-PK1-P-gp cells, 20 μM, mean ± SD, n = 3, read-out: B to A permeability

Compound | Oral BA [1] | AUC fold increase with LAB supplementation compared to control groups [2] [fold] | Papp A→B at 20 μM (P-gp; pig, LLC-PK1) [×10⁻⁶ cm/s] | Papp B→A at 20 μM (P-gp; pig, LLC-PK1) [×10⁻⁶ cm/s] | CLint (intrinsic clearance) (P-gp; pig, llc-pk1) [µL/min] | AUC [3] [ng·h/mL] | Cmax ([3]; Cmax) [ng/mL] | MRT [3] [h] | Tmax [3] [h] | Relative abundance / metabolic activity following fermentation of RGE with LAB (LAB [4]) | efflux ratio at 50 µM [5] | efflux ratio at 20 μM (P-gp; [11]) | Papp A→B at 20 μM (P-gp; [12]) [×10⁻⁶ cm/s] | Papp B→A at 20 μM (P-gp; [13]) [×10⁻⁶ cm/s] | LAB-mediated deglycosylation (formation of deglycosylated ginsenoside from the incubated ginsenoside) (LAB [6]) | further results
CC(C)=CCCC(C)(O)C1CCC2(C)C1C(O)CC1C3(C)CCC(O)C(C)(C)C3C(O)CC12C (stereo not drawn) [PPT, 20(s)-protopanaxatriol] | 3.7% | 1.63 | 3.73 ± 0.56 | 10 ± 1.1 | 231 | 59.9 ± 49.2 | 9.5 ± 4.8 | 19.4 ± 10.5 | 17.4 ± 17.4 | significantly increased | 2.7 |  |  |  |  | efflux ratio at 20 μM (P-gp; pig, LLC-PK1, ER): 2.7
CC(C)=CCCC(C)(O)C1CCC2(C)C1C(O)CC1C3(C)CCC(O)C(C)(C)C3CCC12C (stereo not drawn) [PPD, 20(s)-protopanaxadiol] | 36.8–48.1% | 2.67 |  |  |  | 130 ± 39.9 | 7.6 ± 1.7 | 18.6 ± 5 | 16 ± 18.5 | significantly increased | 2.7 | 3.3 | 0.13 ± 0.01 | 0.42 ± 0.04 |  | Oral bioavailability (BA) [1]: 36.8–48.1%; CLint (intrinsic clearance) (P-gp; P-gp-mediated B to A transport in LLC-PK1-P-gp cells): 5.2 µL/min
CC(C)=CCCC(C)(OC1OC(CO)C(O)C(O)C1O)C1CCC2(C)C1C(O)CC1C3(C)CCC(O)C(C)(C)C3C(OC3OC(CO)C(O)C(O)C3O)CC12C (stereo not drawn) [GRg1] |  |  |  |  |  |  |  |  |  | marked decrease |  | 1 | 0.1 ± 0.02 | 0.1 ± 0.03 | the highest | Papp A→B at 50 µM ([5]; CaCo-2 cell monolayers, 50 µM ginsenoside, read-out: A to B Papp): < 0.3 ×10⁻⁶ cm/s
P-gp (Homo sapiens) |  |  |  |  |  |  |  |  |  |  |  |  |  |  |  | Km [7]: 76 µM; Vmax [7]: 0.40 nmol/min; Km [8]: 98 µM; Vmax [8]: 67.7 nmol/min; Km [9]: 83 µM; Vmax [9]: 19.2 nmol/min; Km [10]: 151 µM; Vmax [10]: 75.9 nmol/min
CC(C)=CCCC(C)(OC1OC(CO)C(O)C(O)C1O)C1CCC2(C)C1C(O)CC1C3(C)CCC(O)C(C)(C)C3CCC12C (stereo not drawn) [CK, compound K] | 4.3% |  | 0.14 | 8.25 ± 0.58 | 690 | 57.9 ± 16.6 |  | 17.2 ± 4.5 | 8 ± 4 |  |  |  |  |  | the highest | Cmax [3]: 5.1 ± 2.2 ng/mL
